Read-outs that look alike come from different tables or passages of the source.

Assay [1] addresses T1, pY705-STAT3 in PBMC (Homo sapiens, UniProt P40763).
T1 construct: Cryopreserved Peripheral Blood Mononuclear Cells (PBMC) are from AllCells; host or cells: cryopreserved PBMC
In words: MSD-pSTAT-PBMC Assay (pSTAT3, IL-6 stimulated). The conditions noted are these: PBMC, compound 3 hrs, then 10 ng/mL IL-6 for 10 min; Table 115; read-out: STAT3. In kind it is cell-based. In outline: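 pY705-STAT3 was detected electrochemiluminescently on total-STAT3 capture plates, using lysates of human PBMCs given compound for 3 h and then IL-6 (10 ng/mL, 10 min). Values were background-subtracted against unstimulated wells and set relative to DMSO. IC50 was fitted with variable slope.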

Assay [2] addresses T2, pY641-STAT6 in PBMC (Homo sapiens, UniProt P42226).
T2 construct: Cryopreserved Peripheral Blood Mononuclear Cells (PBMC) are from AllCells; host or cells: cryopreserved PBMC
T2 sequence (P42226 1-847): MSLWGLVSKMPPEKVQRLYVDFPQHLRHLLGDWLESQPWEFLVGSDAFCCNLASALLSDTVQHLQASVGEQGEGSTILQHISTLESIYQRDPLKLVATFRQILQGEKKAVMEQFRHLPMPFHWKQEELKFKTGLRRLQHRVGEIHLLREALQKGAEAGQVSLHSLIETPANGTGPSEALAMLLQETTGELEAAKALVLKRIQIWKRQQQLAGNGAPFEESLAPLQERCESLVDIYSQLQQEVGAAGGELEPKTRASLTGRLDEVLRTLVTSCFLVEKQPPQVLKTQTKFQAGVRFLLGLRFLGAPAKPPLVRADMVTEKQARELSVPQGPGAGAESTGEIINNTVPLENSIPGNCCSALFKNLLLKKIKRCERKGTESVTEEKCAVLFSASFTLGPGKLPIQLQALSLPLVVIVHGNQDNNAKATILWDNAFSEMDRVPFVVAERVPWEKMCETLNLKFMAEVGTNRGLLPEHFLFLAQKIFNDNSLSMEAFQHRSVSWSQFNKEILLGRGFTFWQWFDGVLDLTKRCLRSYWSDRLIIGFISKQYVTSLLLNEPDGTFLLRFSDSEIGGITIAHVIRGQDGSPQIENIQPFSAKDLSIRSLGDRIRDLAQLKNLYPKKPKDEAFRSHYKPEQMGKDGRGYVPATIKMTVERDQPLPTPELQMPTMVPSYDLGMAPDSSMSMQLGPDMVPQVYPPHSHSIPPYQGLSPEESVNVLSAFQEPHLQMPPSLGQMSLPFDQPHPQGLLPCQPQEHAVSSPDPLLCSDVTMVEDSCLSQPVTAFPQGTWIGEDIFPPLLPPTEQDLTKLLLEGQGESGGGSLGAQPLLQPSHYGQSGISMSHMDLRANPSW
In words: MSD-pSTAT-PBMC Assay (pSTAT6, IL-4 stimulated). In kind it is cell-based. The conditions noted are these: compound 3 hrs, then 1 ng/mL IL-4 for 10 min, Table 115. Put shortly:
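MSD electrochemiluminescence read-out: total STAT captured, probed with anti-pY641-STAT6 or anti-pY705-STAT3. Human PBMC, 3 h compound pretreatment, 10 min stimulation (IL-4 1 ng/mL or IL-6 10 ng/mL). Unstimulated signal subtracted, DMSO-normalized, variable-slope IC50.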

T1 sequence (P40763 whole entry): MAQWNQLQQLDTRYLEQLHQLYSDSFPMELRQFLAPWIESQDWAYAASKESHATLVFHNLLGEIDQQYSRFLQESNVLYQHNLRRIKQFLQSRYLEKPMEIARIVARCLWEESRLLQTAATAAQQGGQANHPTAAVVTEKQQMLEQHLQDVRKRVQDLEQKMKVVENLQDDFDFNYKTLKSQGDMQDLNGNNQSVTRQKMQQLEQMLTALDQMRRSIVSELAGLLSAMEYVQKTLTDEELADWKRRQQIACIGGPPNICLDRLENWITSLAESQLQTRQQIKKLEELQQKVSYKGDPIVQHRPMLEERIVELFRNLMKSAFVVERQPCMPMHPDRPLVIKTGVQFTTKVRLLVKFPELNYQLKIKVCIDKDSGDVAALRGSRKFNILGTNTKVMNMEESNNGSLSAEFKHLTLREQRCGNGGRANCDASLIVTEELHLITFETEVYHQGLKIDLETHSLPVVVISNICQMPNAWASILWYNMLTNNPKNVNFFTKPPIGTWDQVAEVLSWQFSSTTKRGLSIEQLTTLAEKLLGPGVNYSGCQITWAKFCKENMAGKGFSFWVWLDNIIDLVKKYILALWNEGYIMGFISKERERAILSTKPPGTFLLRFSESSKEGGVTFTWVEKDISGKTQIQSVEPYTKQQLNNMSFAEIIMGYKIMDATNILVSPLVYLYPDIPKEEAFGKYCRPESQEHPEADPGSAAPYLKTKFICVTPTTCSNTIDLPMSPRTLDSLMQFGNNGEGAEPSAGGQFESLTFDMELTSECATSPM

As for `CCCOC(=O)[C@H](C)NP(=O)(Cc1ccc2sc(C(=O)N[C@H]3CCCC[C@H]4CC[C@@H](C(=O)N5CCC(c6cccnc6)C5)N4C3=O)cc2c1)Oc1ccccc1` (stereo partly drawn) [Compound 253, propyl (((2-(((3S,6S,10aS)-5-oxo-3-(3-(pyridin-3-yl)pyrrolidine-1-carbonyl)decahydropyrrolo[1,2-a]azocin-6-yl)carbamoyl)benzo [b]thiophen-5-yl)methyl)(phenoxy)phosphoryl)-L-alaninate], the IC50 in assay [1] is over 3 µM; in assay [2] (STAT6, PBMC), 0.1 to 1 µM.

Take `CCCOC(=O)[C@H](C)NP(=O)(Cc1ccc2sc(C(=O)N[C@H]3CCC[C@H]4CC[C@@H](C(=O)N5CC(c6cnccc6OC)C5)N4C3=O)cc2c1)Oc1ccccc1` (stereo partly drawn) [Compound 255, propyl (((2-(((3S,6S,9aS)-3-(3-(4-methoxypyridin-3-yl)azetidine-1-carbonyl)-5-oxooctahydro-1H-pyrrolo[1,2-a]azepin-6-yl)carbamoyl)benzo [b]thiophen-5-yl)methyl)(phenoxy)phosphoryl)-L-alaninate]: the IC50 was under 0.1 µM in assay [1] and over 3 µM in assay [2] (STAT6, PBMC).

With `CCCOC(=O)[C@H](C)NP(=O)(Oc1ccccc1)C(F)c1ccc2sc(C(=O)N[C@H]3CCC[C@H]4CC[C@@H](C(=O)N5CC(c6cnccc6OC)C5)N4C3=O)cc2c1` (stereo partly drawn) [Compound 262, propyl ((fluoro(2-(((3S,6S,9aS)-3-(3-(4-methoxypyridin-3-yl)azetidine-1-carbonyl)-5-oxooctahydro-1H-pyrrolo[1,2-a]azepin-6-yl)carbamoyl)benzo [b]thiophen-5-yl)methyl)(phenoxy)phosphoryl)-L-alaninate], the IC50 was under 0.1 µM in assay [1] and over 3 µM in assay [2] (STAT6, PBMC).

Take `CCCOC(=O)[C@H](C)NP(=O)(Oc1ccccc1)C(F)c1ccc2sc(C(=O)N[C@H]3C[C@H](C)C[C@H]4CC[C@@H](C(=O)N5CC(c6cnccc6F)C5)N4C3=O)cc2c1` (stereo partly drawn) [Compound 263, propyl ((fluoro(2-(((3S,6S,8S,9aR)-3-(3-(4-fluoropyridin-3-yl)azetidine-1-carbonyl)-8-methyl-5-oxooctahydro-1H-pyrrolo[1,2-a]azepin-6-yl)carbamoyl)benzo [b]thiophen-5-yl)methyl)(phenoxy)phosphoryl)-L-alaninate]: the IC50 in assay [1] was under 0.1 µM; in assay [2] (STAT6, PBMC) it was over 3 µM.

Consider `CCCOC(=O)[C@H](C)NP(=O)(Cc1ccc2sc(C(=O)N[C@H]3CCCC[C@H]4CC[C@@H](C(=O)NCc5cnc6[nH]cnc6c5)N4C3=O)cc2c1)Oc1ccccc1` (stereo partly drawn) [Compound 280, propyl (((2-(((3S,6S,10aS)-3-(((3H-imidazo[4,5-b]pyridin-6-yl)methyl)carbamoyl)-5-oxodecahydropyrrolo [1,2-a]azocin-6-yl)carbamoyl)benzo [b]thiophen-5-yl)methyl)(phenoxy)phosphoryl)-L-alaninate], for which the IC50 in assay [1] is under 0.1 µM; in assay [2] (STAT6, PBMC), over 3 µM.

As to `CCCOC(=O)[C@H](C)NP(=O)(Cc1ccc2sc(C(=O)N[C@H]3C[C@@H](C)C[C@H]4CC[C@@H](C(=O)N5CC(c6cnccc6C)C5)N4C3=O)cc2c1)Oc1ccccc1` (stereo partly drawn) [Compound 284, propyl (((2-(((3S,6S,8R,9aR)-8-methyl-3-(3-(4-methylpyridin-3-yl)azetidine-1-carbonyl)-5-oxooctahydro-1H-pyrrolo[1,2-a]azepin-6-yl)carbamoyl)benzo [b]thiophen-5-yl)methyl)(phenoxy)phosphoryl)-L-alaninate], the IC50 in assay [1] was under 0.1 µM; in assay [2] (STAT6, PBMC), over 3 µM.

Turning to `CCCOC(=O)[C@H](C)NP(=O)(Oc1ccccc1)C(F)c1ccc2sc(C(=O)N[C@H]3C[C@@H](C)C[C@H]4CC[C@@H](C(=O)N5CC(c6cnccc6F)C5)N4C3=O)cc2c1` (stereo partly drawn) [Compound 292, propyl ((fluoro(2-(((3S,6S,8R,9aR)-3-(3-(4-fluoropyridin-3-yl)azetidine-1-carbonyl)-8-methyl-5-oxooctahydro-1H-pyrrolo[1,2-a]azepin-6-yl)carbamoyl)benzo [b]thiophen-5-yl)methyl)(phenoxy)phosphoryl)-L-alaninate], the IC50 is under 0.1 µM in assay [1] and over 3 µM in assay [2] (STAT6, PBMC).

Take `CCCOC(=O)[C@H](C)NP(=O)(Cc1ccc2sc(C(=O)N[C@H]3CC4(CC[C@H]5CC[C@@H](C(=O)N6CC(c7cccnc7)C6)N5C3=O)CC4)cc2c1)Oc1ccccc1` (stereo partly drawn) [Compound 302, propyl (((2-(((3′S,6′S,10a′S)-5′-oxo-3′-(3-(pyridin-3-yl)azetidine-1-carbonyl)octahydro-5′H-spiro[cyclopropane-1,8′-pyrrolo[1,2-a]azocin]-6′-yl)carbamoyl)benzo [b]thiophen-5-yl)methyl)(phenoxy)phosphoryl)-L-alaninate]: the IC50 in assay [1] was under 0.1 µM; in assay [2] (STAT6, PBMC) it was 1 to 3 µM.

In the case of `CCCOC(=O)[C@H](C)NP(=O)(Cc1ccc2sc(C(=O)N[C@H]3CCC[C@H]4CC[C@@H](C(=O)N5CC(c6cnccc6F)C5)N4C3=O)cc2c1)Oc1ccccc1` (stereo partly drawn) [Compound 304, propyl (((2-(((3S,6S,9aS)-3-(3-(4-fluoropyridin-3-yl)azetidine-1-carbonyl)-5-oxooctahydro-1H-pyrrolo[1,2-a]azepin-6-yl)carbamoyl)benzo [b]thiophen-5-yl)methyl)(phenoxy)phosphoryl)-L-alaninate], the IC50 in assay [1] was under 0.1 µM; in assay [2] (STAT6, PBMC) it was over 3 µM.

Take `CCCOC(=O)[C@H](C)NP(=O)(Oc1ccccc1)C(F)c1ccc2sc(C(=O)N[C@H]3CCCC[C@H]4CC[C@@H](C(=O)N5CCC(c6cccnc6)C5)N4C3=O)cc2c1` (stereo partly drawn) [Compound 320, propyl ((fluoro(2-(((3S,6S,10aS)-5-oxo-3-(3-(pyridin-3-yl)pyrrolidine-1-carbonyl)decahydropyrrolo[1,2-a]azocin-6-yl)carbamoyl)benzo [b]thiophen-5-yl)methyl)(phenoxy)phosphoryl)-L-alaninate]: the IC50 was under 0.1 µM in assay [1] and 0.1 to 1 µM in assay [2] (STAT6, PBMC).

With `CC(C)(C)C(=O)SCCOP(=O)(OCCSC(=O)C(C)(C)C)C(F)(F)c1ccc2sc(C(=O)N[C@H]3CCC[C@H]4CC[C@@H](C(=O)N5CC(c6cnccc6F)C5)N4C3=O)cc2c1` [Compound 324, S,S′-((((difluoro(2-(((3S,6S,9aS)-3-(3-(4-fluoropyridin-3-yl)azetidine-1-carbonyl)-5-oxooctahydro-1H-pyrrolo[1,2-a]azepin-6-yl)carbamoyl)benzo [b]thiophen-5-yl)methyl)phosphoryl)bis(oxy))bis(ethane-2,1-diyl)) bis(2,2-dimethyl-propanethioate)], the IC50 in assay [1] was under 0.1 µM; in assay [2] (PBMC, read-out: STAT6), over 3 µM.

Turning to `CCCOC(=O)[C@H](C)NP(=O)(Oc1ccccc1)[C@@H](F)c1ccc2sc(C(=O)N[C@H]3CCCC[C@H]4CC[C@@H](C(=O)N5C[C@@H](c6ccccc6)[C@H](C#N)C56CC6)N4C3=O)cc2c1` (stereo partly drawn) [Compound 380, propyl (((R)-(2-(((3S,6S,10aS)-3-((6R,7S)-7-cyano-6-phenyl-4-azaspiro[2.4]heptane-4-carbonyl)-5-oxodecahydropyrrolo [1,2-a]azocin-6-yl)carbamoyl)benzo [b]thiophen-5-yl)fluoromethyl) (phenoxy)phosphoryl)-L-alaninate], the IC50 in assay [1] was over 3 µM; in assay [2] (STAT6, PBMC), under 0.1 µM.

Consider `CCCOC(=O)[C@H](C)NP(=O)(Oc1ccccc1)[C@@H](F)c1ccc2sc(C(=O)N[C@H]3CCCC[C@H]4CC[C@@H](C(=O)N5C[C@H](c6ccccc6)[C@@H](C#N)C56CC6)N4C3=O)cc2c1` (stereo partly drawn) [Compound 381, propyl (((R)-(2-(((3S,6S,10aS)-3-((6S,7R)-7-cyano-6-phenyl-4-azaspiro[2.4]heptane-4-carbonyl)-5-oxodecahydropyrrolo [1,2-a]azocin-6-yl)carbamoyl)benzo [b]thiophen-5-yl)fluoromethyl) (phenoxy)phosphoryl)-L-alaninate], for which the IC50 in assay [1] is over 3 µM; in assay [2] (STAT6, PBMC), under 0.1 µM.

Values taken from patent US20250215029A1 (Recludix Pharma, Inc., priority 2022, published 2025).
